According to patent US8017606B2, “Quinoline derivatives as antibacterial agents” (Janssen Pharmaceutica NV, priority 2005, dated 2011):
≈ marks a conversion by molar mass, not a printed value.

How the values were obtained:
[1] = test system: Bacillus subtilis (ATCC43639); experiment: Microtitre plate assay, IC90 determination; assay type: cell-based; settings: 90% inhibitory concentration for bacterial growth, 37° C., resazurin fluorescence, read-out: IC90 (μg/ml) BSU 43639
Experimental: (§1) The bacteria used in this study were grown overnight in flasks containing 100 ml Mueller-Hinton Broth (Becton Dickinson—cat. no. 275730) in sterile de-ionized water, with shaking, at 37° C. Stocks (0.5 ml/tube) were stored at −70° C. until use. Bacteria titrations were performed in microtiter plates and colony forming units (CFUs) were determined. In general, an inoculum level of approximately 100 CFUs was used for susceptibility testing.
(§2) Anti Bacterial Susceptibility Testing: IC90 Determination
(§3) Flat-bottom, sterile 96-well plastic microtiter plates were filled with 180 μl of sterile deionized water, supplemented with 0.25% BSA. Subsequently, stock solutions (7.8×final test concentration) of compounds were added in 45 μl volumes in column 2 Serial five-fold dilutions (45 μl in 180 μl) were made directly in the microtiter plates from column 2 to reach column 11. Untreated control samples with (column 1) and without (column 12) inoculum were included in each microtiter plate. Depending on the bacteria type, approximately 10 to 60 CFU per well of bacteria inoculum (100 TCID50), in a volume of 100 μl in 2.8× Mueller-Hinton broth medium, was added to the rows A to H, except column 12. The same volume of broth medium without inoculum was added to column 12 in row A to H. The cultures were incubated at 37° C. for 24 hours under a normal atmosphere (incubator with open air valve and continuous ventilation). At the end of incubation, one day after inoculation, the bacterial growth was quantitated fluorometrically. Therefore resazurin (0.6 mg/ml) was added in a volume of 20 μl to all wells […], and the plates were re-incubated overnight. A change in colour from blue to pink indicated the growth of bacteria.
(§4) The fluorescence was read in a computer-controlled fluorometer (Cytofluor Biosearch) at an excitation wavelength of 530 nm and an emission wavelength of 590 nm. The % growth inhibition achieved by the compounds was calculated according to standard methods. The IC90 (expressed in μg/ml) was defined as the 90% inhibitory concentration for bacterial growth.

[2] = test system: Enterococcus faecalis (ATCC14506); experiment: Microtitre plate assay, IC90 determination; assay type: cell-based; settings: 90% inhibitory concentration for bacterial growth, 37° C., resazurin fluorescence, read-out: IC90 (μg/ml) EFA 14506
Experimental: as §1, §2, §3, §4

[3] = test system: Enterococcus faecalis (ATCC29212); experiment: Microtitre plate assay, IC90 determination; assay type: cell-based; settings: 90% inhibitory concentration for bacterial growth, 37° C., resazurin fluorescence, read-out: IC90 (μg/ml) EFA 29212
Experimental: as §1, §2, §3, §4

[4] = test system: Listeria monocytogenes (ATCC49594); experiment: Microtitre plate assay, IC90 determination; assay type: cell-based; settings: 90% inhibitory concentration for bacterial growth, 37° C., resazurin fluorescence, read-out: IC90 (μg/ml) LMO 49594
Experimental: as §1, §2, §3, §4

[5] = test system: Pseudomonas aeruginosa (ATCC27853); experiment: Microtitre plate assay, IC90 determination; assay type: cell-based; settings: 90% inhibitory concentration for bacterial growth, 37° C., resazurin fluorescence, read-out: IC90 (μg/ml) PAE 27853
Experimental: as §1, §2, §3, §4

[6] = test system: Staphylococcus aureus (ATCC25923); experiment: Microtitre plate assay, IC90 determination; assay type: cell-based; settings: 90% inhibitory concentration for bacterial growth, 37° C., resazurin fluorescence, read-out: IC90 (μg/ml) STA 25923
Experimental: as §1, §2, §3, §4

[7] = test system: Staphylococcus aureus (ATCC29213); experiment: Microtitre plate assay, IC90 determination; assay type: cell-based; settings: 90% inhibitory concentration for bacterial growth, 37° C., resazurin fluorescence, read-out: IC90 (μg/ml) STA 29213
Experimental: as §1, §2, §3, §4

[8] = test system: Streptococcus mutans (ATCC33402); experiment: Microtitre plate assay, IC90 determination; assay type: cell-based; settings: 90% inhibitory concentration for bacterial growth, 37° C., resazurin fluorescence, read-out: IC90 (μg/ml) SMU 33402
Experimental: as §1, §2, §3, §4

[9] = test system: Streptococcus pneumoniae (ATCC6305); experiment: Microtitre plate assay, IC90 determination; assay type: cell-based; settings: 90% inhibitory concentration for bacterial growth, 37° C., resazurin fluorescence, read-out: IC90 (μg/ml) SPN 6305
Experimental: as §1, §2, §3, §4

[10] = test system: Streptococcus pyogens (ATCC8668); experiment: Microtitre plate assay, IC90 determination; assay type: cell-based; settings: 90% inhibitory concentration for bacterial growth, 37° C., resazurin fluorescence, read-out: IC90 (μg/ml) SPY 8668
Experimental: as §1, §2, §3, §4

[11] = test system: methicilline resistant Staphylococcus aureus (MRSA) (a clinical isolate from the University of Antwerp); experiment: Microtitre plate assay, IC90 determination; assay type: cell-based; settings: 90% inhibitory concentration for bacterial growth, 37° C., resazurin fluorescence, read-out: IC90 (μg/ml) STA RMETHIC
Experimental: as §1, §2, §3, §4

Row | SMILES | IC90 [1] [µg/mL] | IC90 [2] [µg/mL] | IC90 [3] [µg/mL] | IC90 [4] [µg/mL] | IC90 [5] [µg/mL] | IC90 [6] [µg/mL] | IC90 [7] [µg/mL] | IC90 [8] [µg/mL] | IC90 [9] [µg/mL] | IC90 [10] [µg/mL] | IC90 [11] [µg/mL] | melting point [°C]
1 | CN(C)CCC(O)(c1cccc2ccccc12)c1cc(Br)cc2cc(-c3ccccc3)c(-n3cncn3)nc12 (stereo not drawn) [Compound 33] | 11.5 (≈ 19.9 µM) | 46 (≈ 79.5 µM) | 14.5 (≈ 25.1 µM) | 14.5 (≈ 25.1 µM) | 14.5 (≈ 25.1 µM) | 14.5 (≈ 25.1 µM) | 14.5 (≈ 25.1 µM) | 11.5 (≈ 19.9 µM) | 14.5 (≈ 25.1 µM) | 11.5 (≈ 19.9 µM) | 14.5 (≈ 25.1 µM) | 
2 | CN(C)CCC(O)(c1cc(F)cc(F)c1)c1cccc2nc(N(C)C)c(-c3ccccc3)cc12 (stereo not drawn) [Compound 45] | 9.2 (≈ 19.9 µM) | 10.3 (≈ 22.3 µM) | 11.6 (≈ 25.1 µM) | 11.6 (≈ 25.1 µM) | 11.6 (≈ 25.1 µM) | 10.3 (≈ 22.3 µM) | 9.2 (≈ 19.9 µM) | 9.2 (≈ 19.9 µM) | 11.6 (≈ 25.1 µM) | 9.2 (≈ 19.9 µM) | 46.2 (≈ 100 µM) | 
3 | CN(C)CCC(O)(c1ccccc1)c1cc(Br)cc2cc(Cc3ccccc3)c(OCCN3CCCCC3)nc12 (stereo not drawn) [Compound 48] | 60.3 (≈ 100 µM) |  | 60.3 (≈ 100 µM) | 60.3 (≈ 100 µM) | 47.9 (≈ 79.5 µM) | 53.7 (≈ 89.1 µM) | 53.7 (≈ 89.1 µM) | 47.9 (≈ 79.5 µM) | 60.3 (≈ 100 µM) | 47.9 (≈ 79.5 µM) | 60.3 (≈ 100 µM) | 131
4 | CC(=O)c1ccc(N2CCN(c3nc4c(C(O)(CCN(C)C)c5ccccc5)cc(Br)cc4cc3Cc3ccccc3)CC2)cc1 (stereo not drawn) [Compound 54] |  |  | 17 (≈ 25.1 µM) |  | 17 (≈ 25.1 µM) |  | 17 (≈ 25.1 µM) | 17 (≈ 25.1 µM) | 17 (≈ 25.1 µM) | 17 (≈ 25.1 µM) |  | 
5 | COc1nc2c(C(O)(CCN(C)C)c3cc(F)cc(F)c3)cc(-c3cccnc3)cc2cc1-c1ccccc1 (stereo not drawn) [Compound 64] | 8.3 (≈ 15.8 µM) | 10.5 (≈ 20 µM) | 13.2 (≈ 25.1 µM) | 13.2 (≈ 25.1 µM) | 13.2 (≈ 25.1 µM) | 6.6 (≈ 12.6 µM) | 8.3 (≈ 15.8 µM) | 2.1 (≈ 4 µM) | 10.5 (≈ 20 µM) | 2.1 (≈ 4 µM) | 11.8 (≈ 22.5 µM) | 
6 | CN(C)CCC(O)(c1ccccc1)c1cc(-c2cccnc2)cc2cc(-c3ccccc3)c(-c3cccnc3)nc12 (stereo not drawn) [Compound 65] | 13.5 (≈ 25.2 µM) |  | 13.5 (≈ 25.2 µM) | 13.5 (≈ 25.2 µM) | 13.5 (≈ 25.2 µM) | 13.5 (≈ 25.2 µM) | 13.5 (≈ 25.2 µM) | 13.5 (≈ 25.2 µM) | 13.5 (≈ 25.2 µM) | 13.5 (≈ 25.2 µM) | 13.5 (≈ 25.2 µM) | 
7 | COc1nc2c(C(O)(CCN(C)C)c3ccccc3)cc(-c3cccnc3)cc2cc1Cc1ccccc1 (stereo not drawn) [Compound 66] | 50.4 (≈ 100 µM) |  | 50.4 (≈ 100 µM) | 50.4 (≈ 100 µM) | 40 (≈ 79.4 µM) | 50.4 (≈ 100 µM) | 40 (≈ 79.4 µM) | 40 (≈ 79.4 µM) | 50.4 (≈ 100 µM) | 40 (≈ 79.4 µM) | 50.4 (≈ 100 µM) | 180
8 | CN(C)CCC(O)(c1cccc2ccccc12)c1cc(Br)cc2cc(-c3ccccc3)c(=O)[nH]c12 (stereo not drawn) [Compound 69] | 52.8 (≈ 100 µM) |  | 13.3 (≈ 25.2 µM) | 41.9 (≈ 79.4 µM) | 13.3 (≈ 25.2 µM) | 52.8 (≈ 100 µM) | 13.3 (≈ 25.2 µM) |  | 13.3 (≈ 25.2 µM) | 13.3 (≈ 25.2 µM) | 52.8 (≈ 100 µM) | 190
9 | COc1nc2ccccc2c(CC(O)(CCN(C)C)c2cccc3ccccc23)c1Cc1ccccc1 (stereo not drawn) [Compound 70] | 12.3 (≈ 25.1 µM) |  | 49.1 (≈ 100 µM) | 39 (≈ 79.5 µM) | 9.8 (≈ 20 µM) | 12.3 (≈ 25.1 µM) | 12.3 (≈ 25.1 µM) | 9.8 (≈ 20 µM) | 12.3 (≈ 25.1 µM) | 9.8 (≈ 20 µM) | 12.3 (≈ 25.1 µM) | 
10 | COc1nc2ccccc2c(CC(O)(CCN(C)C)c2cccc(F)c2)c1Cc1ccccc1 (stereo not drawn) [Compound 71] | 11.5 (≈ 25.1 µM) |  | 11.5 (≈ 25.1 µM) | 9.2 (≈ 20.1 µM) | 11.5 (≈ 25.1 µM) | 11.5 (≈ 25.1 µM) | 11.5 (≈ 25.1 µM) | 9.2 (≈ 20.1 µM) | 11.5 (≈ 25.1 µM) | 9.2 (≈ 20.1 µM) | 11.5 (≈ 25.1 µM) | 123
